{"source": "patent US8871680B2", "about": "“Herbicidal compositions comprising 4-amino-3-chloro-5-fluoro-6-(4-chloro-2-fluoro-3-methoxyphenyl) pyridine-2-carboxylic acid or a derivative thereof and a di-methoxy-pyrimidine and derivatives thereof” (Dow AgroSciences LLC, priority 2012, dated 2014)", "key": {"LEFCH [1]": {"system": "LEFCH", "experiment": "Postemergence foliar-applied weed control, direct seeded rice (greenhouse)", "format": "in vivo, Leptochloa chinensis (L.) Nees", "from_the_text": "(§1) Seeds or nutlets of the desired test plant species were planted in a soil matrix prepared by mixing a loam or sandy loam soil (e.g., 28.6 percent silt, 18.8 percent clay, and 52.6 percent sand, with a pH of about 5.8 and an organic matter content of about 1.8 percent) and calcareous grit in an 80 to 20 ratio. The soil matrix was contained in plastic pots with a volume of 1 quart and a surface area of 83.6 square centimeters (cm^2). When required to ensure good germination and healthy plants, a fungicide treatment and/or other chemical or physical treatment was applied. The plants were grown for 8-22 days in a greenhouse with an approximate 14 hr photoperiod which was maintained at about 29° C. during the day and 26° C. during the night. Nutrients (Peters Excel® 15-5-15 5-Ca 2-Mg and iron chelate) were applied in the irrigation solution as needed and water was added on a regular basis. Supplemental lighting was provided with overhead metal halide 1000-Watt lamps as necessary. The plants were employed for testing when they reached the first through fourth true leaf stage.\nTreatments consisted of the acid or esters of 4-amino-3-chloro-5-fluoro-6-(4-chloro-2-fluoro-3-methoxy-phenyl)pyridine-2-carboxylic acid (Compound A), each formulated as an SC (suspension concentrate), and various herbicidal components alone and in combination. Forms of compound A were applied on an acid equivalent basis.\nOther herbicidal components were applied on an active ingredient basis and included the dimethoxy-pyrimidine acid acetolactate synthase (ALS)-inhibiting herbicides bispyribac-sodium formulated as Regiment® 80WP, pyribenzoxim (technical grade material), pyriminobac-methyl formulated as Hie-Clean® 1.2% GR dissolved in water, and pyriftalid (technical grade material).\n(§2) Treatment requirements were calculated based upon the rates being tested, the concentration of active ingredient or acid equivalent in the formulation, and a 12 mL application volume at a rate of 187 L/ha.\nFor treatments comprised of formulated compounds, measured amounts of compounds were placed individually in 25 mL glass vials and diluted in a volume of 1.25% (v/v) Agri-Dex® crop oil concentrated to obtain 12× stock solutions. […] Application solutions were prepared by adding an appropriate amount of each stock solution (e.g., 1 mL) and diluted to the appropriate final concentrations with the addition of 10 mL of an aqueous mixture of 1.25% (v/v) crop oil concentrate so that the final spray solutions contained 1.25+/−0.005% (v/v) crop oil concentrate.\nFor treatments comprised of technical compounds, weighed amounts can be placed individually in 25 mL glass vials and dissolved in a volume of 97:3 v/v acetone/DMSO to obtain 12× stock solutions. […] Application solutions can be prepared by adding an appropriate amount of each stock solution (e.g., 1 mL) and diluted to the appropriate final concentrations with the addition of 10 mL of an aqueous mixture of 1.5% (v/v) crop oil concentrate so that the final spray solutions contain 1.25% (v/v) crop oil concentrate. When technical materials are used, the concentrated stock solutions can be added to the spray solutions so that the final acetone and DMSO concentrations of the application solutions are 16.2% and 0.5%, respectively.\n(§3) For treatments comprised of formulated and technical compounds, weighed amounts of the technical materials were placed individually in 25 mL glass vials and dissolved in a volume of 97:3 v/v acetone/DMSO to obtain 12× stock solutions, and measured amounts of the formulated compounds were placed individually in 25 mL glass vials and diluted in a volume of 1.5% (v/v) crop oil concentrate or water to obtain 12× stock solutions. […]"}, "ECHCG": {"system": "ECHCG", "experiment": "In-water applied weed control, transplanted paddy rice (greenhouse)", "format": "in vivo, Echinochloa crusgalli (L.) Beauv.", "protocol": "(§4) Weed seeds or nutlets of the desired test plant species were planted in puddled soil (mud) prepared by mixing a shredded, non-sterilized mineral soil (50.5 percent silt, 25.5 percent clay, and 24 percent sand, with a pH of about 7.6 and an organic matter content of about 2.9 percent) and water at a 1:1 volumetric ratio. The prepared mud was dispensed in 365 mL aliquots into 16-ounce (oz.) non-perforated plastic pots with a surface area of 86.59 square centimeters (cm^2) leaving a headspace of 3 centimeters (cm) in each pot. Mud was allowed to dry overnight prior to planting or transplanting. Rice seeds were planted in Sun Gro MetroMix® 306 planting mixture, which typically has a pH of 6.0 to 6.8 and an organic matter content of about 30 percent, in plastic plug trays. Seedlings at the second or third leaf stage of growth were transplanted into 860 mL of mud contained in 32-oz. non-perforated plastic pots with a surface area of 86.59 cm^2 4 days prior to herbicide application. The paddy was created by filling the headspace of the pots with 2.5 to 3 cm of water. When required to ensure good germination and healthy plants, a fungicide treatment and/or other chemical or physical treatment was applied. The plants were grown for 4-22 days in a greenhouse with an approximate 14 hr photoperiod which was maintained at about 29′C during the day and 26° C. during the night. Nutrients were added as Osmocote® (19:6:12, N:P:K+minor nutrients) at 2 g per 16-oz. pot and 4 g per 32-oz. pot. Water was added on a regular basis to maintain the paddy flood, and supplemental lighting was provided with overhead metal halide 1000-Watt lamps as necessary. The plants were employed for testing when they reached the first through fourth true leaf stage.\n(§5) Treatments consisted of the acid or esters of 4-amino-3-chloro-5-fluoro-6-(4-chloro-2-fluoro-3-methoxy-phenyl)pyridine-2-carboxylic acid (compound A) each formulated as an SC and various herbicidal components alone and in combination. Forms of compound A were applied on an acid equivalent basis.\n(§6) Other herbicidal components were applied on an active ingredient basis and included the dimethoxy-pyrimidine acid acetolactate synthase (ALS)-inhibiting herbicides bispyribac-sodium formulated as Regiment® 80 WP, pyriminobac-methyl formulated as Hie Clean®, and pyriftalid (technical grade material).\n(§7) Treatment requirements for each compound or herbicidal component were calculated based upon the rates being tested, the concentration of active ingredient or acid equivalent in the formulation, an application volume of 2 mL per component per pot, and an application area of 86.59 cm^2 per pot.\n(§8) For formulated compounds, a measured amount was placed in an individual 100 or 200 mL glass vial and was dissolved in a volume of 1.25% (v/v) Agri-Dex® crop oil concentrate to obtain application solutions.\n(§9) For technical grade compounds, a weighed amount was placed in an individual 100 to 200 mL glass vial and was dissolved in a volume of acetone to obtain concentrated stock solutions. […] The concentrated stock solutions obtained were diluted with an equivalent volume of an aqueous mixture containing 2.5% (v/v) crop oil concentrate so that the final application solutions contained 1.25% (v/v) crop oil concentrate.\n(§10) Applications were made by injecting with a pipetter appropriate amounts of the application solutions, individually and sequentially, into the aqueous layer of the paddy.\n(§11) Control plants were treated in the same manner with the solvent blank. Applications were made so that all treated plant material received the same concentrations of acetone and crop oil concentrate.\n(§12) The treated plants and control plants were placed in a greenhouse as described above and water was added as needed to maintain a paddy flood. […]"}, "ECHOR": {"system": "ECHOR", "experiment": "In-water applied weed control, transplanted paddy rice (greenhouse)", "format": "in vivo, Echinochloa oryzoides (Ard.) Fritsch", "protocol": "as §4, §5, §6, §7, §8, §9, §10\n(§13) Control plants were treated in the same manner with the solvent blank. […]"}, "LEFCH [2]": {"system": "LEFCH", "experiment": "In-water applied weed control, transplanted paddy rice (greenhouse)", "format": "in vivo, Leptochloa chinensis (L.) Nees", "conditions": "40 gai/ha", "protocol": "as §4, §5, §6, §7, §8, §9, §10, §13"}, "SCPMA": {"system": "SCPMA", "experiment": "In-water applied weed control, transplanted paddy rice (greenhouse)", "format": "in vivo, Bolboschoenus maritimus (L.) Palla", "protocol": "as §4, §5, §6, §7, §8, §9, §10, §11, §12"}, "CYPRO": {"system": "CYPRO", "experiment": "In-water applied weed control, transplanted paddy rice (greenhouse)", "format": "in vivo, Cyperus rotundus L.", "protocol": "as §4, §5, §6, §7, §8, §9, §10, §11, §12"}, "BRAPP": {"system": "BRAPP", "experiment": "Postemergence foliar-applied weed control, direct seeded rice (greenhouse)", "format": "in vivo, Brachiaria platyphylla (Griseb.) Nash", "from_the_text": "as §1, with “stage. […]” for “stage.”\nas §2\nFor treatments comprised of formulated compounds, measured amounts of compounds were placed individually in 25 mL glass vials and diluted in a volume of 1.25% (v/v) Agri-Dex® crop oil concentrated to obtain 12× stock solutions. […]\nas §3"}, "FIMMI": {"system": "FIMMI", "experiment": "In-water applied weed control, transplanted paddy rice (greenhouse)", "format": "in vivo, Fimbristylis miliacea (L.) Vahl", "protocol": "as §4, §5, §6, §7, §8, §9, §10, §11, §12"}}}
{"compound": "COc1cc(OC)nc(Oc2cccc(Oc3nc(OC)cc(OC)n3)c2C(=O)[O-])n1.[Na+]", "note": "[Bispyribac-Sodium, sodium 2,6-bis[(4,6-dimethoxy-2-pyrimidinyl)oxy]benzoate, reference compound]", "values": [{"measurement": "Visual Weed Control (%)-20 DAA LEFCH Obs", "setting": "LEFCH [1]; 7 gai/ha", "result": 0, "unit": "%"}, {"measurement": "Visual Weed Control (%)-20 DAA LEFCH Obs", "setting": "LEFCH [1]; 14 gai/ha", "result": 0, "unit": "%"}, {"measurement": "Visual Weed Control (%) - 20 DAA ECHCG Obs", "setting": "ECHCG; 10 gai/ha", "result": 20, "unit": "%"}, {"measurement": "Visual Weed Control (%) - 20 DAA ECHCG Obs", "setting": "ECHCG; 20 gai/ha", "result": 35, "unit": "%"}, {"measurement": "Visual Weed Control (%) - 20 DAA ECHCG Obs", "setting": "ECHCG; 40 gai/ha", "result": 30, "unit": "%"}, {"measurement": "Visual Weed Control (%)-20 DAA ECHOR Obs", "setting": "ECHOR; 40 gai/ha, Table 7", "result": 30, "unit": "%"}, {"measurement": "Visual Weed Control (%)-20 DAA ECHOR Obs", "setting": "ECHOR; 40 gai/ha, Table 9", "result": 30, "unit": "%"}, {"measurement": "Visual Weed Control (%)-20 DAA LEFCH Obs", "setting": "LEFCH [2]", "result": 28, "unit": "%"}, {"measurement": "Visual Weed Control (%)-20 DAA SCPMA Obs", "setting": "SCPMA; 40 gai/ha, Table 7", "result": 38, "unit": "%"}, {"measurement": "Visual Weed Control (%)-20 DAA SCPMA Obs", "setting": "SCPMA; 40 gai/ha, Table 8", "result": 38, "unit": "%"}, {"measurement": "Visual Weed Control (%)-20 DAA SCPMA Obs", "setting": "SCPMA; 40 gai/ha, Table 9", "result": 38, "unit": "%"}, {"measurement": "Visual Weed Control (%)-20 DAA CYPRO Obs", "setting": "CYPRO; 10 gai/ha", "result": 0, "unit": "%"}, {"measurement": "Visual Weed Control (%)-20 DAA CYPRO Obs", "setting": "CYPRO; 20 gai/ha", "result": 0, "unit": "%"}]}
{"compound": "CCCCOC(=O)c1nc(-c2ccc(Cl)c(OC)c2F)c(F)c(N)c1Cl", "note": "[Compound A n-Butyl Ester]", "values": [{"measurement": "Visual Weed Control (%)-20 DAA ECHOR Obs", "setting": "ECHOR; 35 gae/ha", "result": 35, "unit": "%"}, {"measurement": "Visual Weed Control (%)-20 DAA ECHOR Obs", "setting": "ECHOR; 70 gae/ha", "result": 40, "unit": "%"}, {"measurement": "Visual Weed Control (%)-20 DAA SCPMA Obs", "setting": "SCPMA; 70 gae/ha", "result": 0, "unit": "%"}]}
{"compound": "COc1cc(OC)nc(Sc2cccc3c2C(=O)OC3C)n1", "note": "(centres unmarked) [Pyriftalid, 7-[(4,6-dimethoxy-2-pyrimidinyl)thio]-3-methyl-1 (3H)-isobenzofuranone, reference compound]", "values": [{"measurement": "Visual Weed Control (%)-22 DAA LEFCH Obs", "setting": "LEFCH [1]; 45 gai/ha", "result": 0, "unit": "%"}, {"measurement": "Visual Weed Control (%)-22 DAA LEFCH Obs", "setting": "LEFCH [1]; 90 gai/ha", "result": 0, "unit": "%"}, {"measurement": "Visual Weed Control (%)-22 DAA BRAPP Obs", "setting": "BRAPP; 45 gai/ha", "result": 0, "unit": "%"}, {"measurement": "Visual Weed Control (%)-22 DAA BRAPP Obs", "setting": "BRAPP; 90 gai/ha", "result": 0, "unit": "%"}, {"measurement": "Visual Weed Control (%)-21 DAA CYPRO Obs", "setting": "CYPRO; 45 gai/ha, Table 12", "result": 0, "unit": "%"}, {"measurement": "Visual Weed Control (%)-21 DAA CYPRO Obs", "setting": "CYPRO; 45 gai/ha, Table 13", "result": 0, "unit": "%"}, {"measurement": "Visual Weed Control (%)-21 DAA CYPRO Obs", "setting": "CYPRO; 90 gai/ha, Table 12", "result": 0, "unit": "%"}, {"measurement": "Visual Weed Control (%)-21 DAA CYPRO Obs", "setting": "CYPRO; 90 gai/ha, Table 13", "result": 0, "unit": "%"}, {"measurement": "Visual Weed Control (%)-21 DAA FIMMI Obs", "setting": "FIMMI; 45 gai/ha", "result": 50, "unit": "%"}, {"measurement": "Visual Weed Control (%)-21 DAA FIMMI Obs", "setting": "FIMMI; 90 gai/ha", "result": 30, "unit": "%"}]}
